# According to article PMC12035805, “A Water-Soluble Aggregation-Induced Emission Photosensitizer with Intrinsic Antibacterial Activity as an Antiplanktonic and Antibiofilm Therapeutic Agent” (Journal of Medicinal Chemistry, 2025):
# Key:
# [1] = system: P. aeruginosa (ATCC 27853); test: Wound infection mouse model, P. aeruginosa biofilm; format: in vivo; settings: mice, topical 90 μM, 600 nm 15 min, every 24 h for 4 days (TPA-1 + L)
# Experimental: All in vivo experiments were approved by the Department of Science and Technology of Zhejiang Province (SYXK(Zhejiang)2021-0043). Female BALB/c mice (10–12 weeks old) were kept in 12 h light and 12 h dark cycle with access to free food and water for 7 days before and throughout the experiment. The backs of the mice were shaved and disinfected with iodine. A full-thickness circular wound (7 mm in diameter) was then created at the back of the mice. The mice were allowed to recover for 24 h after surgery to prevent sepsis.[65] Ten μL of 1× 10^8 CFU/mL MRSA (ATCC 43300) or P. aeruginosa (ATCC 27853) in saline was added to the wound. The wound was covered with an adhesive dressing for 24 h of infection. Next, the mice were randomly divided into four groups: (1) 50 μL TPA-1 (90 μM) with 600 nm light irradiation (60 mW/cm^2) for 15 min, (2) 50 μL TPA-1 (90 μM) in dark, (3) 50 μL saline with 600 nm light irradiation (60 mW/cm^2) for 15 min, and (4) 50 μL saline in dark. For light irradiation groups, TPA-1 and saline were incubated on the wound for 10 min before irradiation. The treatment was sustained for 4 days. The wound size and body weight of the mice were recorded every day. On day 6, the mice were euthanatized, and the wound tissue was collected. […] The other half of the tissue was homogenized, and the number of viable bacteria was measured by the plate counting method.
# [2] = system: planktonic P. aeruginosa; test: Photodynamic eradication of planktonic bacteria; format: cell-based, Pseudomonas aeruginosa; settings: 2 μM, 600 nm (60 mW/cm^2)
# Experimental: For planktonic bacteria, an overnight culture of S. aureus or P. aeruginosa was diluted 100 times in TSB and grown to OD = 1. The bacteria cultures were then diluted to […] in PBS. TPA-1 (2 μM) was added to the diluted cultures and incubated under darkness for 20 min at 30 °C. Bacterial cultures of 200 μL were transferred to the wells of a 96-well plate. The plate was irradiated by 600 nm light (60 mW/cm^2) for 30 and 45 min. Then, the bacterial cultures were serially diluted, and the number of viable bacteria was counted using the plate counting method.
# [3] = Hemolysis of human erythrocytes; format: cell-based; settings: 200 μM compound, 1 h, 37 °C
# Experimental: (§1) The human erythrocyte concentrate was prepared according to the kit manual from the Biomaterial Hemolytic Assay Kit (Hemoscan). After the human erythrocytes had been washed and diluted with manufacture buffer, 100 μL of erythrocytes (10%) were added into 100 μL of various concentrations of compounds in PBS. 1% of Triton X (1%) was the positive control, while PBS was the negative control. The erythrocytes were then gently mixed with the TPA compounds and further incubated for an hour at 37 °C. After that, the erythrocytes were centrifuged (1000 rpm, 5 min), and 20 μL of supernatant was added to 180 μL of PBS in a 96-well plate. The optical density at 380, 415, and 450 nm was measured by a plate reader. The final OD value of the compounds was calculated as (2 × OD415) – (OD450 + OD380) where OD380, OD415, and OD450 are the optical density of the solution at 380, 415, and 450 nm, respectively. The hemolysis rates of the compounds were calculated as (ODcompound – ODPBS)/(ODTritonX – ODPBS) × 100% where ODcompound, ODPBS, and ODTritonX are the final OD values of the erythrocytes mixed with TPA compounds, PBS, and 1% Triton X, respectively. The experiment was performed in triplicate.
# [4] = system: human erythrocytes; test: Hemolysis of human erythrocytes; format: cell-based
# Experimental: as §1
smiles,measurement,setting,value
C#CCC[n+]1c(/C=C/c2ccc(-c3ccc(N(c4ccc(OCCC[N+](C)(C)C)cc4)c4ccc(OCCC[N+](C)(C)C)cc4)cc3)s2)sc2ccccc21.[Br-].[Br-].[Br-] [TPA-1],P. aeruginosa eradicated in infected tissues,[1],96% ± 4%
same,P. aeruginosa log (CFU/mg tissue) reduction,[1],1.4 ± 0.4 log (CFU/mg tissue)
same,planktonic P. aeruginosa eradicated,[2]; 30 min,99.96% ± 0.03%
same,planktonic P. aeruginosa log CFU/mL reduction,[2]; 30 min,3.4 ± 0.2 log CFU/mL
same,planktonic P. aeruginosa eradicated,[2]; 45 min,> 99.99%
same,planktonic P. aeruginosa log CFU/mL reduction,[2]; 45 min,> 5 log CFU/mL
same,"hemolysis at 1 h, 200 µM",[3],< 2%
same,HC50,[4],> 200 µM
